# Measurements taken from US9650369B2, “Anti-migration and anti-invasion thiazole analogs for treatment of cellular proliferative disease” (XAVIER UNIVERSITY OF LOUISIANA, priority 2012, dated 2017).
# Legend:
# Format in all cases: cell-based
# [1] = tested on: MDA-MB-231 breast cancer cells; test: clonogenic assay (colony formation), MDA-MB-231; settings: Homo sapiens, 336 h; MDA-MB-231, 10 μM analogs, 14 days; read-out: Effect on cell proliferation (colony formation) (% of vehicle control)
# Description: To determine if these analogs have anti-migration and anti-invasion activities in different cancer cell lines, transwell migration assays were performed using MDA-MB-231 breast cancer cells (FIG. 3) and HeLa cells (FIG. 5) for all synthetic analogs. […] Next, clonogenic assays were performed on the breast cancer cells treated with the compounds to rule out any indirect effect on cell migration due to cytotoxicity (FIG. 4). MDA-MB-231 cells were allowed to grow for 14 days in six-well plates in the presence or absence of the synthetic compounds at 10 μM.
# To rule out any indirect effect on cell migration due to cytotoxicity, clonogenic assays were performed on the breast cancer cells treated with the compounds. MDA-MB-231 cells were allowed to grow for 14 days in six-well plates in the presence or absence of the synthetic compounds at 10 μM. […] For example, analog 3g blocked both cell migration (81.4%) and colony formation (42.7%). For these analogs cytotoxity may have partially contributed to their overall anti-migration effect. The cell toxicity data for all analogs are listed in Table 1 along with anti-migration data for comparison.
# [2] = cytotoxicity of additional thiazole compounds (Table 3); settings: cell line not given
# Excerpt: (§1) The additional thiazole compounds were synthesized and tested for antimigration efficacy and cytotoxicity, with results shown in TABLE 3.
# [3] = antimigration efficacy of additional thiazole compounds (Table 3); settings: cell line not given; read-out: IC50 (anti-migration)
# Excerpt: as §1
Compound,IC50 [3] [µM],activity at 10 µM [1] [%],Cytotoxicity (Survival at 1 μM) [2] [%]
"CCCCCC(=O)N(C)c1nc(-c2ccccc2)cs1 [Compound 4h, N-Methyl-N-(4-phenylthiazol-2-yl)hexanamide]",,128,
"Cn1c(-c2ccccc2)cs/c1=N/C(=O)c1ccc(Br)cc1 [Compound 5d, 4-Bromo-N-(3-methyl-4-phenylthiazol-2(3H)-yliene)benzamide]",,63.8,
"Cc1ccc(-c2csc(N(C)C(=O)c3cccs3)n2)c(C)c1 [Compound 4b, N-(4-(2,4-dimethylphenyl)thiazol-2-yl)-N-methylthiophene-2-carboxamide]",,97.7,
"CCCCCCCCCCCC(=O)N(C)c1nc(-c2ccccc2)cs1 [Compound 4i, N-Methyl-N-(4-phenylthiazol-2-yl)dodecanamide]",,111,
"CN(C(=O)C1CCCC1)c1nc(-c2ccccc2)cs1 [Compound 4f, N-Methyl-N-(4-phenylthiazol-2-yl)cyclopentanecarboxamide]",,132,
"Nc1nc(-c2ccccc2)cs1 [Compound 2a, 2-Amino-4-phenylthiazole]",,104,
"O=C(Nc1nc(-c2ccccc2)cs1)c1cccnc1 [Compound 3h, N-(4-Phenylthiazol-2-yl)nicotinamide]",,103,
"Cc1csc(NC(=O)c2ccccc2)n1 [Compound 14a, N-(4-Methylthiazol-2-yl)benzamide]",12,,103.1
"Cc1ccc(-c2csc(=NS(=O)(=O)c3ccccc3)n2C)c(C)c1 [Compound 11, N-(4-(2,4-Dimethylphenyl)-3-methylthiazol-2(3H)-ylidene)benzenesulfonamide]",1.46,,92.4
"COc1cc(-c2csc(NC(=O)c3ccc(Cl)cc3)n2)cc(OC)c1OC [Compound 14l, 4-Chloro-N-(4-(3,4,5-trimethoxyphenyl)thiazol-2-yl)benzamide]",> 25,,85.6
"O=C(Nc1nc(-c2cccc(Br)c2)cs1)c1ccccc1 [Compound 14c, N-(4-(3-Bromophenyl)thiazol-2-yl)benzamide]",10,,78.0
"COc1cccc(C(=O)Nc2nc(-c3cc(OC)c(OC)c(OC)c3)cs2)c1 [Compound 14r, 3-Methoxy-N-(4-(3,4,5-trimethoxyphenyl)thiazol-2-yl)benzamide]",14,,92.6
"CCN(C(=O)c1ccccc1)c1nc(-c2ccccc2)cs1 [Compound 7a, N-Ethyl-N-(4-phenylthiazol-2-yl)benzamide]",0.565,,68.5
"CCCn1c(-c2ccccc2)csc1=NC(=O)c1ccccc1 [Compound 7b, N-(4-Phenyl-3-propylthiazol-2(3H)-ylidene)benzamide]",0.432,,100.0
"Cc1ccc(-c2csc(N(C)S(=O)(=O)c3ccccc3)n2)c(C)c1 [Compound 12, N-(4-(2,4-Dimethylphenyl)thiazol-2-yl)-N-methylbenzenesulfonamide]",> 25,,116.7
"C#CCn1c(-c2ccc(C)cc2C)csc1=NC(=O)c1ccccc1 [Compound 5r, N-(4-(2,4-Dimethylphenyl)-3-(prop-2-yn-1-yl)thiazol-2(3H)-ylidene)benzamide]",11,,70.2
"O=C(Nc1nc(-c2cccc(Cl)c2)cs1)c1ccccc1 [Compound 14e, N-(4-(3-Chlorophenyl)thiazol-2-yl)benzamide]",0.123,,71.4
"O=C(Nc1nc(-c2ccc(Br)cc2)cs1)c1ccccc1 [Compound 14d, N-(4-(4-Bromophenyl)thiazol-2-yl)benzamide]",9.5,,82.2
"CCCn1c(-c2ccc(C)cc2C)csc1=NC(=O)c1ccccc1 [Compound 5m, N-(4-(2,4-Dimethylphenyl)-3-propylthiazol-2(3H)-ylidene)benzamide]",0.176,,85.0
"Cc1sc(NC(=O)c2ccccc2)nc1-c1ccccc1 [Compound 14h, N-(5-Methyl-4-phenylthiazol-2-yl)benzamide]",> 25,,99.0
"COc1cc(-c2csc(NC(=O)c3ccccc3)n2)cc(OC)c1OC [Compound 14g, N-(4-(3,4,5-Trimethoxyphenyl)thiazol-2-yl)benzamide]",> 50,,95.0
"O=C(Nc1nc(-c2cc(C(F)(F)F)cc(C(F)(F)F)c2)cs1)c1ccccc1 [Compound 14f, N-(4-(3,5-Bis(trifluoromethyl)phenyl)thiazol-2-yl)benzamide]",0.336,,85.8
"CCCCCCCCCCCCn1c(-c2ccc(C)cc2C)csc1=NC(=O)c1ccccc1 [Compound 5p, N-(4-(2,4-Dimethylphenyl)-3-dodecylthiazol-2(3H)-ylidene)benzamide]",0.032,,109.5
"CCn1c(-c2ccc(C)cc2C)csc1=NC(=O)c1ccccc1 [Compound 5l, N-(4-(2,4-Dimethylphenyl)-3-ethylthiazol-2(3H)-ylidene)benzamide]",5.56,,141.8

# The next lines start with results.
IC50 [3] [µM],Compound,activity at 10 µM [1] [%],Cytotoxicity (Survival at 1 μM) [2] [%]
0.125,"Cn1c(-c2ccc(Br)cc2)csc1=NC(=O)c1ccccc1 [Compound 15d, N-(4-(4-Bromophenyl)-3-methylthiazol-2(3H)-ylidene)benzamide]",,59.3
0.197,"Cc1sc(=NC(=O)c2ccccc2)n(C)c1-c1ccccc1 [Compound 15h, N-(3,5-Dimethyl-4-phenylthiazol-2(3H)-ylidene)benzamide]",,68.4
> 25,"COc1ccccc1C(=O)N(C)c1nc(-c2cc(OC)c(OC)c(OC)c2)cs1 [Compound 16l, 2-Methoxy-N-methyl-N-(4-(3,4,5-trimethoxyphenyl)thiazol-2-yl)benzamide]",,109.3
0.096,"Cn1c(-c2cc(C(F)(F)F)cc(C(F)(F)F)c2)csc1=NC(=O)c1ccccc1 [Compound 15f, N-(4-(3,5-Bis(trifluoromethyl)phenyl)-3-methylthiazol-2(3H)-ylidene)benzamide]",,79.8
> 25,"Cc1ccc(-c2cn(C)/c(=N\C(=O)c3ccccc3)s2)cc1 [Compound 15j, N-(3-Methyl-5-(p-toyl)thiazol-2(3H)-ylidene)benzamide]",,112.6
0.312,"COc1ccc(C(=O)N(C)c2nc(-c3cc(OC)c(OC)c(OC)c3)cs2)cc1 [Compound 16g, 4-Methoxy-N-methyl-N-(4-(3,4,5-trimethoxyphenyl)thiazol-2-yl)benzamide]",,100.0
5.04,"COc1ccc(C(=O)N(C)c2nc(-c3cc(OC)c(OC)c(OC)c3)cs2)c(OC)c1 [Compound 16i, 2,4-Dimethoxy-N-methyl-N-(4-(3,4,5-trimethoxyphenyl)thiazol-2-yl)benzamide]",,118.5
10,"COc1cc(-c2csc(N(C)C(=O)c3ccccc3)n2)cc(OC)c1OC [Compound 16d, N-Methyl-N-(4-(3,4,5-trimethoxyphenyl)thiazol-2-yl)benzamide]",,96.4
1.09,"Cc1ccc(-c2cnc(N(C)C(=O)c3ccccc3)s2)cc1 [Compound 16f, N-Methyl-N-(5-(p-tolyl)thiazol-2-yl)benzamide]",,59.3
0.104,"Cn1c(C2CC2)csc1=NC(=O)c1ccccc1 [Compound 15n, N-(4-Cyclopropyl-3-methylthiazol-2(3H)-ylidene)benzamide]",,90.7
> 25,"COc1ccc(C(=O)N(C)c2nc(-c3cc(OC)c(OC)c(OC)c3)cs2)cc1OC [Compound 16h, 3,4-Dimethoxy-N-methyl-N-(4-(3,4,5-trimethoxyphenyl)thiazol-2-yl)benzamide]",,101.9
0.108,"COc1cc(-c2csc(N(C)C(=O)c3cccc(OC)c3OC)n2)cc(OC)c1OC [Compound 16k, 2,3-Dimethoxy-N-methyl-N-(4-(3,4,5-trimethoxyphenyl)thiazol-2-yl)benzamide]",,117.6
0.646,"COc1cccc(C(=O)N(C)c2nc(-c3cc(OC)c(OC)c(OC)c3)cs2)c1 [Compound 16m, 3-Methoxy-N-methyl-N-(4-(3,4,5-trimethoxyphenyl)thiazol-2-yl)benzamide]",,88.9
0.3,"Cn1c(-c2cccc(Br)c2)csc1=NC(=O)c1ccccc1 [Compound 15c, N-(4-(3-Bromophenyl)-3-methylthiazol-2(3H)-ylidene)benzamide]",,94.4
0.758,"COc1cc(-c2csc(=NC(=O)c3ccc(Cl)cc3)n2C)cc(OC)c1OC [Compound 15l, 4-Chloro-N-(3-methyl-4-(3,4,5-trimethoxyphenyl)thiazol-2(3H)-ylidene)benzamide]",,77.6
0.847,"Cc1sc(=NC(=O)c2ccccc2)n(C)c1-c1ccc(F)cc1 [Compound 15i, N-(4-(4-Fluorophenyl)-3,5-dimethylthiazol-2(3H)-ylidene)benzamide]",,83.8
